Measured values as given in PubChem BioAssay (NCI).
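Here, GI50 denotes the concentration required for 50% inhibition of growth. The concentration for full growth arrest is given as TGI.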

What was measured:
Assay in all cases: DTP human tumour cell line panel, 384-well format
786-0 renal = tested on: 786-0 renal
BT-549 breast = tested on: BT-549 breast
HCT-15 colon = tested on: HCT-15 colon
IGROV1 ovarian = tested on: IGROV1 ovarian
M14 melanoma = tested on: M14 melanoma
MDA-MB-435 melanoma = tested on: MDA-MB-435 melanoma
MOLT-4 leukemia = tested on: MOLT-4 leukemia
NCI/ADR-RES ovarian = tested on: NCI/ADR-RES ovarian
OVCAR-3 ovarian = tested on: OVCAR-3 ovarian
OVCAR-8 ovarian = tested on: OVCAR-8 ovarian
RXF 393 renal = tested on: RXF 393 renal
SK-OV-3 ovarian = tested on: SK-OV-3 ovarian
SN12C renal = tested on: SN12C renal

Cc1ccc2c(Nc3cccc(Cl)c3F)ncc(NC(=O)c3csc4c(N)ncnc34)c2c1
GI50 (786-0 renal): 22.2 µM | TGI (786-0 renal): > 100 µM | GI50 (BT-549 breast): 22.8 µM | TGI (BT-549 breast): > 100 µM | GI50 (HCT-15 colon): 26.3 µM | TGI (HCT-15 colon): > 100 µM | GI50 (IGROV1 ovarian): 1.6 µM | TGI (IGROV1 ovarian): 97.9 µM | GI50 (M14 melanoma): 0.0224 µM | TGI (M14 melanoma): 0.186 µM | GI50 (MDA-MB-435 melanoma): 0.0481 µM | TGI (MDA-MB-435 melanoma): 55 µM | GI50 (MOLT-4 leukemia): 21.8 µM | TGI (MOLT-4 leukemia): > 100 µM | GI50 (NCI/ADR-RES ovarian): 19.7 µM | TGI (NCI/ADR-RES ovarian): > 100 µM | GI50 (OVCAR-3 ovarian): 22.2 µM | TGI (OVCAR-3 ovarian): 84.7 µM | GI50 (OVCAR-8 ovarian): 13.2 µM | TGI (OVCAR-8 ovarian): 43.1 µM | GI50 (RXF 393 renal): 0.968 µM | TGI (RXF 393 renal): 95.7 µM | GI50 (SK-OV-3 ovarian): 27 µM | TGI (SK-OV-3 ovarian): > 100 µM | GI50 (SN12C renal): 8.16 µM | TGI (SN12C renal): > 100 µM
